Earlier results on one substance are cited in patent US6352974B1, “Oral calcitonin pharmaceutical compositions and methods of making the same” (Eurand International S.p.A., priority 1996, dated 2002).

For this series the following is noted: typical activity.

Take Salmon calcitonin: the activity entry was “up to 6500 IU/mg”.
